Assay results as given in patent US8901138B2, “Sulfoximine substituted quinazolines for pharmaceutical compositions” (Boehringer Ingelheim International GmbH, priority 2012, dated 2014).

Experiments:
phosphorylated elF4E = settings: cell culture cells transfected with MNK2 (MNK2a or MNK2b) or MNK1; cited from earlier work
MNK1a = MNK1a (Homo sapiens, UniProt Q9BUB5); assay: MNK1 in vitro kinase assay (assay 2), Z'-LYTE; format: biochemical; settings: for inhibition at 1 µM: compound concentration of 1 μM; for IC50: pre-activated GST-MNK1a
Summary of the method: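 Pre-activated GST-MNK1a (13.5-54 ng) with 2 μM Ser/Thr 07 FRET peptide in 50 mM HEPES pH 7.5, 10 mM MgCl2, 2 mM MnCl2, 1 mM EGTA, 1 mM DTT, 1% DMSO; 1 h kinase then 1 h development at room temperature. Coumarin/fluorescein emission ratio gives % phosphorylation; sigmoidal dose-response fit.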

MNK2a = target: T1, MNK2a (Homo sapiens, UniProt Q9HBH9); assay: MNK2a in vitro kinase assay (assay 1), ADP-Glo; format: biochemical; settings: preactivated GST-MNK2a, 20 μM ATP, read-out: MNK2 IC50
T1 construct: made in house
Summary of the method: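 Preactivated GST-MNK2a (10 nM) with eIF4E peptide (25 μM) and ATP (20 μM) in HEPES/DTT/MgCl2 buffer, 90 min at room temperature, final DMSO <3%. ADP formed read by ADP-Glo luminescence and normalised to vehicle and 20 μM reference-inhibitor controls; IC50 from dose-response curves.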

T1 sequence (Q9HBH9 whole entry): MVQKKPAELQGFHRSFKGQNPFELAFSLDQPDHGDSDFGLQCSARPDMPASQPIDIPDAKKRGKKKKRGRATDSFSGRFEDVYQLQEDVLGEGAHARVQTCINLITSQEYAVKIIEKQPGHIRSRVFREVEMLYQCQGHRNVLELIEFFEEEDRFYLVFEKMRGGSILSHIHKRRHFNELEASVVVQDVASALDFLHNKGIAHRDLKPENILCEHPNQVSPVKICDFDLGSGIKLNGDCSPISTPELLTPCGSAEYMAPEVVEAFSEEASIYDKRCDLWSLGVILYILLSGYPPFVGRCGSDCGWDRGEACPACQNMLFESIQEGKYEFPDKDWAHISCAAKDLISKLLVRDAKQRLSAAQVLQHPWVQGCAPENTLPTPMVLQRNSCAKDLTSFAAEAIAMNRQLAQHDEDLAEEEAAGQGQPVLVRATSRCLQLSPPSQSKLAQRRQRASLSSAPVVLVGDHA
MNK1a, sequence (Q9BUB5 1-424 isoform Q9BUB5-2): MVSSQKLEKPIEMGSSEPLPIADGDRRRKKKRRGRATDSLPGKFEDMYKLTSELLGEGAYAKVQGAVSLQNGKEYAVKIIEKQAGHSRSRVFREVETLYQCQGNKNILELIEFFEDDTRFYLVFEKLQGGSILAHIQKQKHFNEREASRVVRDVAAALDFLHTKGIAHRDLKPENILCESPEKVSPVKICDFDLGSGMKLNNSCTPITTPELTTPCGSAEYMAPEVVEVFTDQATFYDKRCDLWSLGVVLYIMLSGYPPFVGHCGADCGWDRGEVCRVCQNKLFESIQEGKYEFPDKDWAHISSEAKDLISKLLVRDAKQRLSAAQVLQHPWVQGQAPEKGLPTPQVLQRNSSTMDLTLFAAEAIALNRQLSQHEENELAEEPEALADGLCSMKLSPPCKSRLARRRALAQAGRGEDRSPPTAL

SMILES | inhibition at 1 µM (MNK1a) [%] | IC50 (MNK2a) [nM] | IC50 (MNK1a) [nM] | reduction of phosphorylated elF4E (phosphorylated elF4E)
Nc1ncnc2n[nH]c(Nc3ccc(F)cc3)c12 [CGP57380] |  |  |  | strong reduction
Cc1cc(N=S2(=O)CCCC2)cc2ncnc(Nc3ccc(F)cc3O[C@@H]3CCN(S(C)(=O)=O)C3)c12 [Example 6.18] | 98 | 1 |  | 
CO[C@H]1CC[C@H](Oc2cc(F)ccc2Nc2ncnc3cc(N=S4(=O)CCN(C)CC4)cc(C)c23)CC1 [Example 7.1] | 86 | 5 |  | 
CO[C@H]1CC[C@H](Oc2cc(F)ccc2Nc2ncnc3cc(N=S4(=O)CCN(C(C)=O)CC4)cc(C)c23)CC1 [Example 7.2] | 82 | 6 |  | 
CNC(=O)N1CCS(=O)(=Nc2cc(C)c3c(Nc4ccc(F)cc4O[C@H]4CC[C@H](OC)CC4)ncnc3c2)CC1 [Example 7.4] | 88 | 7 |  | 
CO[C@H]1CC[C@H](Oc2cc(F)ccc2Nc2ncnc3cc(N=S4(=O)CCN(C(=O)N(C)C)CC4)cc(C)c23)CC1 [Example 7.5] | 77 | 7 |  | 
Cc1cc(N=S(C)(C)=O)cc2ncnc(Nc3ccc(C#N)cc3OC3CCOCC3)c12 [Example 7.6] | 99 | 6 |  | 
C=Cc1cc(N=S(C)(C)=O)cc2ncnc(Nc3ccc(F)cc3O[C@H]3CCOC3)c12 [Example 7.7] | 97 | 2 |  | 
Cc1cc(N=S(C)(C)=O)cc2ncnc(Nc3ccc(F)cc3O[C@H]3C[C@H](N(C)C)C3)c12 [Example 7.15] | 92 | 10 |  | 
Cc1cc(N=S(C)(C)=O)cc2ncnc(Nc3ccc(F)cc3O[C@@H]3CCC[C@H]3O)c12 [Example 7.16] |  | 1 | 25 | 
Cc1cc(N=S(C)(C)=O)cc2ncnc(Nc3ccc(F)cc3O[C@@H]3CCCC[C@H]3F)c12 [Example 7.17] | 96 | 1 |  | 

Second part, led by results:

inhibition at 1 µM (MNK1a) [%] | IC50 (MNK2a) [nM] | IC50 (MNK1a) [nM] | SMILES | reduction of phosphorylated elF4E (phosphorylated elF4E)
82 | 24 |  | CS(C)(=O)=Nc1cc(F)c2c(Nc3ccc(F)cc3O[C@@H]3CCN(CCO)C3)ncnc2c1 [Example 6.15] | 
90 | 7 |  | CS(C)(=O)=Nc1cc(F)c2c(Nc3ccc(F)cc3O[C@@H]3CCN(CC(F)F)C3)ncnc2c1 [Example 6.16] | 
79 | 23 |  | Cc1cc(N=S(C)(C)=O)cc2ncnc(Nc3ccc(F)cc3O[C@@H]3CCN(CCO)C3)c12 [Example 6.17] | 
93 | 4 |  | Cc1cc(N=S(C)(C)=O)cc2ncnc(Nc3ccc(F)cc3O[C@@H]3CCCN(CCC#N)C3)c12 [Example 6.20] | 
96 | 3 |  | CS(C)(=O)=Nc1cc(C#N)c2c(Nc3ccc(F)cc3O[C@H]3CCOC3)ncnc2c1 [Example 7.9] | 
100 | 2 |  | CSc1cc(N=S(C)(C)=O)cc2ncnc(Nc3ccc(F)cc3O[C@H]3CCOC3)c12 [Example 7.10] | 
98 | 5 |  | CS(C)(=O)=Nc1cc(SCF)c2c(Nc3ccc(F)cc3O[C@H]3CCOC3)ncnc2c1 [Example 7.11] | 
 | 4 | 87 | Cc1cc(N=S(C)(C)=O)cc2ncnc(Nc3ccc(F)cc3OC3CC3)c12 [Example 7.12] | 
93 | 2 |  | Cc1cc(N=S(C)(C)=O)cc2ncnc(Nc3ccc(F)cc3OC3CNOC3)c12 (stereo not drawn) [Example 7.18] | 
